Experimental data: patent US9156877B2, “17-hydroxy-17-pentafluorethyl-estra-4,9(10)-dien-11-benzylidene derivatives, methods for the production thereof and use thereof for treating diseases” (Bayer Intellectual Property GmbH, priority 2009, dated 2015)
≈ marks a conversion by molar mass, not a printed value.

Assays:
[1] = target: T1, human progesterone receptor A (Homo sapiens, UniProt P06401); test: Progesterone receptor-antagonistic action in stably transfected SK-N-MC cells with MMTV-LUC reporter (PR-A); type: cell-based; conditions: antagonistic potency against 0.1 nmol/l promegestone, 24 hours, luciferase
T1 construct: expressed in transfected cells; host or cells: SK-N-MC human neuroblastoma cells, stably transfected with pRChPR-A-neo and pMMTV-LUC
T1 sequence (P06401 1-769 isoform P06401-2): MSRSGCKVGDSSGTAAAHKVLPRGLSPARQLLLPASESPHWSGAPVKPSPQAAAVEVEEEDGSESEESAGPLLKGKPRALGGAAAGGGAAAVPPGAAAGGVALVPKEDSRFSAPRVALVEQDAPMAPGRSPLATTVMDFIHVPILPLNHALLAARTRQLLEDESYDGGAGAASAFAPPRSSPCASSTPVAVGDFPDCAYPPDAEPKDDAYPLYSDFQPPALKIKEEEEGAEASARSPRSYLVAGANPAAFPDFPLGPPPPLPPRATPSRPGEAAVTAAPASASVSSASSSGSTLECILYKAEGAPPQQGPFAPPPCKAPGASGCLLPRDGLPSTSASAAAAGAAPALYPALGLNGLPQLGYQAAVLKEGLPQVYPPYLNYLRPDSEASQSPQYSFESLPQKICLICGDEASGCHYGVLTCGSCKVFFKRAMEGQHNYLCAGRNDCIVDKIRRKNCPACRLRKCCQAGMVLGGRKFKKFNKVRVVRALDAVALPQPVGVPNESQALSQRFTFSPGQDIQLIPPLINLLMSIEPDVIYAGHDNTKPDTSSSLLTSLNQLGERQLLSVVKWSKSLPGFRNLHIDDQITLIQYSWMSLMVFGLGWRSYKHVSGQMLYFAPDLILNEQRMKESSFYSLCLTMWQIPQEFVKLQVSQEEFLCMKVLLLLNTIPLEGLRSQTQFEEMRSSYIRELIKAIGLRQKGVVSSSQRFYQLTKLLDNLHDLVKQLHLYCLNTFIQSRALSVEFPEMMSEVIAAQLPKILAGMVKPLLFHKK
Procedure, shortened: (§1)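 SK-N-MC neuroblastoma cells stably expressing human PR-A or PR-B plus MMTV-LUC reporter, treated 24 h with test compound (0.01 nmol/l–[…]). Antagonist mode used co-treatment with 0.1 nmol/l promegestone; luciferase in lysates read as RLU, expressed as % efficacy and IC50/EC50.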

[2] = Metabolic stability in rat liver microsomes; type: in vitro ADME; conditions: for Predicted clearance [l/h/kg] Rat: well-stirred model
Experimental: (§2) Determination of Metabolic Stability in Human and Rat Liver Microsomes
(§3) The incubations were conducted with 2.4 ml of HLM solution (protein content 0.5 mg/ml), 30 μl of the test compound (final concentration 1 μM) and 0.6 ml of the cofactor mixture (═NADPH-generating system composed of 3 IU glucose-6-phosphate dehydrogenase, 14.6 mg glucose-6-phosphate, 1.2 mg NADP) at 37° C. in 100 mM phosphate buffer at pH 7.4. Samples were taken at 6 time points (2-60 min) and precipitated with an equal volume of methanol, and the recovery of the test substances used in the supernatant was determined by LC-MS/MS analysis. The half-life of substance degradation determined therefrom was used to calculate what is called the intrinsic clearance of the substance in the liver microsome preparation. […] In addition, under the assumptions that (i) absorption of the test substance is 100%, and (ii) the first pass is completely reflected by liver microsome metabolism, a maximum oral bioavailability (Fmax) was calculated.

[3] = target: T2, human progesterone receptor B (Homo sapiens, UniProt P06401); test: Progesterone receptor-antagonistic action in stably transfected SK-N-MC cells with MMTV-LUC reporter (PR-B); type: cell-based; conditions: antagonistic potency against 0.1 nmol/l promegestone, 24 hours, luciferase
T2 construct: expressed in transfected cells; host or cells: SK-N-MC human neuroblastoma cells, stably transfected with pRChPR-B-neo and pMMTV-LUC
T2 sequence (P06401 1-933): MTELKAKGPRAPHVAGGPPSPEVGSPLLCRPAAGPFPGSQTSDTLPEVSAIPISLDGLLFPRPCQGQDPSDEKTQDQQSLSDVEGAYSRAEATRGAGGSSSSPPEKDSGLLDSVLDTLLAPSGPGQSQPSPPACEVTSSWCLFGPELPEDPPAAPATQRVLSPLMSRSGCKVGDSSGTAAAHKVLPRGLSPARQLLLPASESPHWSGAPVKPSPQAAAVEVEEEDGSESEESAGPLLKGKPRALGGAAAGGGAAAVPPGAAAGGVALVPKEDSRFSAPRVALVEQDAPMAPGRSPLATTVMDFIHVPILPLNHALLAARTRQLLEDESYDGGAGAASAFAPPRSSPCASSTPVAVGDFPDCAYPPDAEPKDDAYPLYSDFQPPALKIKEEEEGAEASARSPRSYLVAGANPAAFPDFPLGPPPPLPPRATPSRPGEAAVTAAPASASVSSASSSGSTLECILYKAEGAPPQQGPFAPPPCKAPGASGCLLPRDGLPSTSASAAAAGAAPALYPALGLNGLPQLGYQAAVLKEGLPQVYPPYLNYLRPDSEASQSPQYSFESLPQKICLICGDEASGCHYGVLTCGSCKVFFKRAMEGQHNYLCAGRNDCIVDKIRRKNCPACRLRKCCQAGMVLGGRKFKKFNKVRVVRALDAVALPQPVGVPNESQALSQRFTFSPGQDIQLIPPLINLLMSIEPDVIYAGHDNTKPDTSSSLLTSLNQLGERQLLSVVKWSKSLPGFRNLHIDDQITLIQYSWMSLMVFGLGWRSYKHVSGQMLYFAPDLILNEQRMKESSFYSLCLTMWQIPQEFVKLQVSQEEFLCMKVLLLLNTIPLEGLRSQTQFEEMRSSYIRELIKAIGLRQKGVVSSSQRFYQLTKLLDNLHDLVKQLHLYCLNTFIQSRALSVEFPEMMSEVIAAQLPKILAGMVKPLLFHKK
Procedure, shortened: as §1

[4] = Solubility in aqueous medium at pH 7.4; type: physicochemical; conditions: for solubility (in words): aqueous medium under physiological conditions; for solubility: aqueous medium, pH 7.4, aqueous buffer
Source text: In addition, some compounds have an unusually good solubility, for this active ingredient class, in aqueous medium under physiological conditions (Table 2).

[5] = Metabolic stability in human liver microsomes; type: in vitro ADME; conditions: for Predicted clearance [l/h/kg] Human: 1 μM, well-stirred model
Experimental: as §2
Isolated human liver microsomes (HLM) were used to assess the metabolic stability of compounds of general formula I.
as §3

Row | Compound | IC50 [1] [nM] | Predicted Fmax [%] (maximum oral bioavailability) Rat [2] | Predicted clearance [l/h/kg] Rat [2] [L/h/kg] | IC50 [3] [nM] | solubility (in words) [4] | solubility [4] [µg/mL] | Predicted Fmax [%] (maximum oral bioavailability) Human [5] | Predicted clearance [l/h/kg] Human [5] [L/h/kg]
1 | C[C@]12C[C@H](c3ccc(/C=C/c4cccc(C(=O)O)c4)cc3)C3=C4CCC(=O)C=C4CC[C@H]3[C@@H]1CC[C@@]2(O)C(F)(F)C(F)(F)F [Example 28, 3-{(E)-2-[4-((8S,11R,13S,14S,17S)-17-hydroxy-13-methyl-3-oxo-17-pentafluoroethyl-2,3,6,7,8,11,12,13,14,15,16,17-dodecahydro-1H-cyclopenta[a]phenanthren-11-yl)phenyl]vinyl}benzoic acid] | 0.06 | 97 | 0.1 | 0.1 | improved | 120 (≈ 196 µM) | 74 | 0.35
2 | CCO/N=C/c1ccc([C@H]2C[C@@]3(C)[C@@H](CC[C@@]3(O)C(F)(F)C(F)(F)F)[C@@H]3CCC4=CC(=O)CCC4=C32)cc1 [Example 36, 4-((8S,11R,13S,14S,17S)-17-hydroxy-13-methyl-3-oxo-17-pentafluoroethyl-2,3,6,7,8,11,12,13,14,15,16,17-dodecahydro-1H-cyclopenta[a]phenanthren-11-yl)benzaldehyde O-ethyl oxime] | 0.08 | 82 | 0.8 | 0.08 |  | 5 (≈ 9.3 µM) | 72 | 0.36
3 | C[C@]12C[C@H](c3ccc(/C=C/CC(C(=O)O)C(=O)O)cc3)C3=C4CCC(=O)C=C4CC[C@H]3[C@@H]1CC[C@@]2(O)C(F)(F)C(F)(F)F [Example 5, 2-{(E)-3-[4-((8S,11R,13S,14S,17S)-17-hydroxy-13-methyl-3-oxo-17-pentafluoroethyl-2,3,6,7,8,11,12,13,14,15,16,17-dodecahydro-1H-cyclopenta[a]phenanthren-11-yl)phenyl]allyl}malonic acid] | 0.4 | 88 | 0.5 | 0.13 | improved | 203 (≈ 334 µM) | 100 | 0.00
4 | C[C@]12C[C@H](c3cccc(/C=C/c4ccncc4)c3)C3=C4CCC(=O)C=C4CC[C@H]3[C@@H]1CC[C@@]2(O)C(F)(F)C(F)(F)F [Example 23, (8S,11R,13S,14S,17S)-17-hydroxy-13-methyl-17-pentafluoroethyl-11-[3-((E)-2-pyridin-4-ylvinyl)phenyl]-1,2,6,7,8,11,12,13,14,15,16,17-dodecahydrocyclopenta[a]phenanthren-3-one] | 0.2 | 95 | 0.2 | 0.2 |  | 8 (≈ 14 µM) | 67 | 0.4
5 | C[C@]12C[C@H](c3ccc(CO)cc3)C3=C4CCC(=O)C=C4CC[C@H]3[C@@H]1CC[C@@]2(O)C(F)(F)C(F)(F)F [Ref. 1, (8S,11R,13S,14S,17S)-17-hydroxy-11-[4-(hydroxymethyl)phenyl]-13-methyl-17-pentafluoroethyl-1,2,6,7,8,11,12,13,14,15,16,17-dodecahydrocyclopenta[a]phenanthren-3-one, reference compound] | 0.7 |  | 0.8 | 0.8 |  |  |  | 0.7
6 | COc1ccc(C/C=C/c2ccc([C@H]3C[C@@]4(C)[C@@H](CC[C@@]4(O)C(F)(F)C(F)(F)F)[C@@H]4CCC5=CC(=O)CCC5=C43)cc2)cc1 [Example 3, (8S,11R,13S,14S,17S)-17-hydroxy-11-{4-[(E)-3-(4-methoxyphenyl)-propenyl]phenyl}-13-methyl-17-pentafluoroethyl-1,2,6,7,8,11,12,13,14,15,16,17-dodecahydrocyclopenta[a]phenanthren-3-one] | 1.5 |  |  | 1.8 |  |  |  | 

These reach a lower IC50 [3]. Values come first.

Row | IC50 [1] [nM] | Predicted Fmax [%] (maximum oral bioavailability) Rat [2] | Predicted clearance [l/h/kg] Rat [2] [L/h/kg] | IC50 [3] [nM] | solubility (in words) [4] | solubility [4] [µg/mL] | Predicted Fmax [%] (maximum oral bioavailability) Human [5] | Predicted clearance [l/h/kg] Human [5] [L/h/kg] | Compound
7 | 0.011 | 75 | 1.1 | 0.011 |  | 9 (≈ 17.4 µM) | 31 | 0.9 | C[C@]12C[C@H](c3ccc(/C=C/C#N)cc3)C3=C4CCC(=O)C=C4CC[C@H]3[C@@H]1CC[C@@]2(O)C(F)(F)C(F)(F)F [Example 14, (E)-3-[4-((8S,11R,13S,14S,17S)-17-hydroxy-13-methyl-3-oxo-17-pentafluoroethyl-2,3,6,7,8,11,12,13,14,15,16,17-dodecahydro-1H-cyclopenta[a]phenanthren-11-yl)phenyl]acrylonitrile]
8 | 0.01 | 57 | 1.8 | 0.02 |  | 6 | 36 | 0.84 | C=CC=Cc1ccc([C@H]2C[C@@]3(C)C(CC[C@@]3(O)C(F)(F)C(F)(F)F)C3CCC4=CC(=O)CCC4=C32)cc1 (mixture of isomers) [Example 18, (8S,11R,13S,14S,17S)-11-[((E/Z)-4-buta-1,3-dienyl)phenyl]-17-hydroxy-13-methyl-17-pentafluoroethyl-1,2,6,7,8,11,12,13,14,15,16,17-dodecahydrocyclopenta[a]phenanthren-3-one]
9 |  |  | 1.9 | 0.012 |  | 6 (≈ 12.2 µM) |  | 0.90 | C=Cc1ccc([C@H]2C[C@@]3(C)[C@@H](CC[C@@]3(O)C(F)(F)C(F)(F)F)[C@@H]3CCC4=CC(=O)CCC4=C32)cc1 [Example 1, (8S,11R,13S,14S,17S)-17-hydroxy-13-methyl-17-pentafluoroethyl-11-(4-vinylphenyl)-1,2,6,7,8,11,12,13,14,15,16,17-dodecahydrocyclopenta[a]phenanthren-3-one]
